# Reference: patent US20230295197A1, “STAT5 and STAT6 Degraders and Uses Thereof” (REGENTS OF THE UNIVERSITY OF MICHICAN, priority 2022, published 2023)
# Where two headings read alike, the source gives them in different places.
# Tests used:
# STAT5 = assay: Immunoblotting (Western blot) analysis of STAT5 degradation efficiency of degraders in treated cells; assay type: cell-based
# Procedure, shortened: (§1)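 Degradation read by quantitative near-infrared Western blot: equal protein loads (20-40 μg) from compound-treated versus untreated cells, probed overnight at 4° C. for STAT5 or STAT6 with GAPDH reference. Compound concentrations and exposure times as indicated; cells grown in medium with 10% FBS at 37° C.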
# STAT6 = molecular target: T1, STAT6 (Homo sapiens, UniProt P42226); assay: Immunoblotting (Western blot) analysis of STAT6 degradation efficiency of degraders in treated cells; assay type: cell-based; details: MOLM-16 cells, read-out: DC50 S6 MOLM-16
# T1 construct: endogenous in cells; host or cells: MOLM-16, KU-812, SKNO1, MB231, L1236
# T1 sequence (P42226 1-847): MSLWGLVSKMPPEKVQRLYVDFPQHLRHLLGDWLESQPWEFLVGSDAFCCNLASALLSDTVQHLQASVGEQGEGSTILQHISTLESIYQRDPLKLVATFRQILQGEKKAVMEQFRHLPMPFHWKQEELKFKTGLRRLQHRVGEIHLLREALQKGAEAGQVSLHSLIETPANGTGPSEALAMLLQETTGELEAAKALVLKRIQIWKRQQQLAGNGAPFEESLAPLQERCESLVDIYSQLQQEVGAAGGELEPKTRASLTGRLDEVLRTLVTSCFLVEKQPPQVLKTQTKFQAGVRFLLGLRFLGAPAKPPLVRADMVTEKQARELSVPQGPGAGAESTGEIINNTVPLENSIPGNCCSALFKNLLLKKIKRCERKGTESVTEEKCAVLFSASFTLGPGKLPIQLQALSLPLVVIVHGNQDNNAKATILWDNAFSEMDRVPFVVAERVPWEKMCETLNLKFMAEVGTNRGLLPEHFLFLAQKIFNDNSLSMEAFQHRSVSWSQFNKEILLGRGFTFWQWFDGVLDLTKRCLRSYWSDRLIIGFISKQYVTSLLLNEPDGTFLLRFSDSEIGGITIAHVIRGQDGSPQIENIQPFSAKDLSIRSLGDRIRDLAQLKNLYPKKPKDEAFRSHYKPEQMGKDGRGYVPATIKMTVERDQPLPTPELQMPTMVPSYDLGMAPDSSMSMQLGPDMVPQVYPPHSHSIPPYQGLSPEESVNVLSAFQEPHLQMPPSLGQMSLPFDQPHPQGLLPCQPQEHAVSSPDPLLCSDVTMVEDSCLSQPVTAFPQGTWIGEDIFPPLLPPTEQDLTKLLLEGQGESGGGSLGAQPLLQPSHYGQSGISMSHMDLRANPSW
# Procedure, shortened: as §1
# [1] = MOLM-16 cells, numeric bound, read-out: DC50 S5 MOLM-16
# [2] = SKNO1 cells, read-out: DC50 S5 SKNO1
# [3] = KU-812 cells, read-out: DC50 S5 KU-812
# [4] = MOLM-16 cells, class symbols, read-out: DC50 S5 MOLM-16
SMILES,DC50 (STAT5; [1]),DC50 (STAT5; [2]),DC50 (STAT6; numeric bound),DC50 (STAT5; [3]),DC50 (STAT5; [4]),DC50 (STAT6; class symbols)
"CC(C)(C)[C@H](NC(=O)c1cc2cc(C(F)(F)P(=O)(O)O)ccc2s1)C(=O)N1CCC[C@H]1C(=O)N(CCC(=O)NCCCC#Cc1cccc2c1CN(C1CCC(=O)NC1=O)C2=O)c1ccc(S(C)(=O)=O)cc1 (stereo partly drawn) [Compound 654, ((2-(((2S)-1-((2S)-2-((3-((5-(2-(2,6-dioxopiperidin-3-yl)-1-oxoisoindolin-4-yl)pent-4-yn-1-yl)amino)-3-oxopropyl)(4-(methylsulfonyl)phenyl)carbamoyl)pyrrolidin-1-yl)-3,3-dimethyl-1-oxobutan-2-yl)carbamoyl)benzo[b]thiophen-5-yl)difluoromethyl)phosphonic acid]",> 0.3 µM,> 10 µM,> 0.3 µM,–,–,–
"CC(C)(C)[C@H](NC(=O)c1cc2cc(C(F)(F)P(=O)(O)O)ccc2s1)C(=O)N1CCC[C@H]1C(=O)N(CCC(=O)NCCCC#Cc1cccc2c1CN(C1CCC(=O)NC1=O)C2=O)c1ccc2ccccc2c1 (stereo partly drawn) [Compound 656, ((2-(((2S)-1-((2S)-2-((3-((5-(2-(2,6-dioxopiperidin-3-yl)-1-oxoisoindolin-4-yl)pent-4-yn-1-yl)amino)-3-oxopropyl)(naphthalen-2-yl)carbamoyl)pyrrolidin-1-yl)-3,3-dimethyl-1-oxobutan-2-yl)carbamoyl)benzo[b]thiophen-5-yl)difluoromethyl)phosphonic acid]",–,0.1 to 1 µM,> 0.3 µM,0.1 to 1 µM,< 0.1 µM,–
"CC(C)(C)[C@H](NC(=O)c1cc2cc(C(F)(F)P(=O)(O)O)ccc2s1)C(=O)N1C[C@H](NC(=O)CCCCCC#Cc2ccc3c(c2)CN(C2CCC(=O)NC2=O)C3=O)C[C@H]1C(=O)Nc1ncc(-c2ccccc2)s1 (stereo partly drawn) [Compound 568, ((2-(((2S)-1-((2S,4R)-4-(8-(2-(2,6-dioxopiperidin-3-yl)-1-oxoisoindolin-5-yl)oct-7-ynamido)-2-((5-phenylthiazol-2-yl)carbamoyl)pyrrolidin-1-yl)-3,3-dimethyl-1-oxobutan-2-yl)carbamoyl)benzo[b]thiophen-5-yl)difluoromethyl)phosphonic acid]",> 0.3 µM,–,> 0.3 µM,–,–,–

# Other lines, results leading:
DC50 (STAT5; [1]),DC50 (STAT5; [2]),DC50 (STAT6; numeric bound),DC50 (STAT5; [3]),DC50 (STAT5; [4]),DC50 (STAT6; class symbols),SMILES
–,0.1 to 1 µM,–,0.1 to 1 µM,< 0.1 µM,> 10 µM,"CN(CCCC#Cc1cccc2c1CN(C1CCC(=O)NC1=O)C2=O)C(=O)CCN(C(=O)[C@@H]1CCCN1C(=O)[C@@H](NC(=O)c1cc2cc(C(F)(F)P(=O)(O)O)ccc2s1)C(C)(C)C)c1ccc2ccccc2c1 (stereo partly drawn) [Compound 680, ((2-(((2S)-1-((2S)-2-((3-((5-(2-(2,6-dioxopiperidin-3-yl)-1-oxoisoindolin-4-yl)pent-4-yn-1-yl)(methyl)amino)-3-oxopropyl)(naphthalen-2-yl)carbamoyl)pyrrolidin-1-yl)-3,3-dimethyl-1-oxobutan-2-yl)carbamoyl)benzo[b]thiophen-5-yl)difluoromethyl)phosphonic acid]"
> 0.3 µM,–,> 0.3 µM,–,–,–,"CC(C)(C)[C@H](NC(=O)c1cc2cc(C(F)(F)P(=O)(O)O)ccc2s1)C(=O)N1CCC[C@H]1C(=O)N1Cc2ccccc2CC1C(=O)NCCCC#Cc1cccc2c1CN(C1CCC(=O)NC1=O)C2=O (stereo partly drawn) [Compound 657, ((2-(((2S)-1-((2S)-2-(3-((5-(2-(2,6-dioxopiperidin-3-yl)-1-oxoisoindolin-4-yl)pent-4-yn-1-yl)carbamoyl)-1,2,3,4-tetrahydroisoquinoline-2-carbonyl)pyrrolidin-1-yl)-3,3-dimethyl-1-oxobutan-2-yl)carbamoyl)benzo[b]thiophen-5-yl)difluoromethyl)phosphonic acid]"
